Results taken from PubChem BioAssay (NCI).
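In this assay, cells in 96-well plates receive the compound at five concentrations for 48 hours. Endpoints are linearly interpolated between the surrounding concentrations. At the GI50, growth is halved. TGI marks complete inhibition of growth.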

How the values were obtained:
Assay in all cases: inhibition of tumour cell growth, NCI panel, 48 h
UACC-257 melanoma = system: UACC-257 melanoma
NCI-H23 lung = system: NCI-H23 lung
NCI-H460 lung = system: NCI-H460 lung
SK-MEL-5 melanoma = system: SK-MEL-5 melanoma
SN12C renal = system: SN12C renal
LOX IMVI melanoma = system: LOX IMVI melanoma
HCT-116 colon = system: HCT-116 colon
EKVX NSCLC = system: EKVX NSCLC
SK-MEL-28 melanoma = system: SK-MEL-28 melanoma
HS 578T breast = system: HS 578T breast
SF-295 CNS = system: SF-295 CNS
NCI/ADR-RES ovarian = system: NCI/ADR-RES ovarian
CAKI-1 renal = system: CAKI-1 renal
SF-268 CNS = system: SF-268 CNS
OVCAR-4 ovarian = system: OVCAR-4 ovarian
TK-10 renal = system: TK-10 renal
COLO 205 colon = system: COLO 205 colon
A498 renal = system: A498 renal
SR leukemia = system: SR leukemia
NCI-H226 lung = system: NCI-H226 lung
OVCAR-3 ovarian = system: OVCAR-3 ovarian
K-562 leukemia = system: K-562 leukemia
MCF7 breast = system: MCF7 breast
ACHN renal = system: ACHN renal
BT-549 breast = system: BT-549 breast
HCT-15 colon = system: HCT-15 colon
PC-3 prostate = system: PC-3 prostate
UO-31 renal = system: UO-31 renal
786-0 renal = system: 786-0 renal
MDA-MB-435 = system: MDA-MB-435
SNB-75 CNS = system: SNB-75 CNS
SNB-19 CNS = system: SNB-19 CNS
RPMI-8226 leukemia = system: RPMI-8226 leukemia
HT29 colon = system: HT29 colon
MOLT-4 leukemia = system: MOLT-4 leukemia
CCRF-CEM leukemia = system: CCRF-CEM leukemia
SK-OV-3 ovarian = system: SK-OV-3 ovarian
UACC-62 melanoma = system: UACC-62 melanoma
OVCAR-5 ovarian = system: OVCAR-5 ovarian
OVCAR-8 ovarian = system: OVCAR-8 ovarian
HL-60(TB) leukemia = system: HL-60(TB) leukemia
MDA-MB-231 breast = system: MDA-MB-231 breast
MALME-3M melanoma = system: MALME-3M melanoma
NCI-H522 lung = system: NCI-H522 lung
U251 CNS = system: U251 CNS
A549 NSCLC = system: A549 NSCLC
T-47D breast = system: T-47D breast
DU-145 prostate = system: DU-145 prostate
SF-539 CNS = system: SF-539 CNS
HOP-62 NSCLC = system: HOP-62 NSCLC
MDA-MB-468 breast = system: MDA-MB-468 breast
RXF 393 renal = system: RXF 393 renal
KM12 colon = system: KM12 colon
SK-MEL-2 melanoma = system: SK-MEL-2 melanoma
HOP-92 NSCLC = system: HOP-92 NSCLC
IGROV1 ovarian = system: IGROV1 ovarian
M14 melanoma = system: M14 melanoma

CCOc1ccc(/C=N/NC(=O)Cn2nc(Cc3ccc([N+](=O)[O-])cc3)c3onc(C)c3c2=O)cc1
GI50 (UACC-257 melanoma): 69.9 µM
TGI (UACC-257 melanoma): > 100 µM
GI50 (NCI-H23 lung): 7.06 µM
TGI (NCI-H23 lung): 35.1 µM
GI50 (NCI-H460 lung): 4.37 µM
TGI (NCI-H460 lung): > 100 µM
GI50 (SK-MEL-5 melanoma): 6.85 µM
TGI (SK-MEL-5 melanoma): > 100 µM
GI50 (SN12C renal): > 100 µM
TGI (SN12C renal): > 100 µM
GI50 (LOX IMVI melanoma): 5.34 µM
TGI (LOX IMVI melanoma): > 100 µM
GI50 (HCT-116 colon): 3.21 µM
TGI (HCT-116 colon): > 100 µM
GI50 (EKVX NSCLC): > 100 µM
TGI (EKVX NSCLC): > 100 µM
GI50 (SK-MEL-28 melanoma): 6.14 µM
TGI (SK-MEL-28 melanoma): > 100 µM
GI50 (HS 578T breast): 2.84 µM
TGI (HS 578T breast): 8.23 µM
GI50 (SF-295 CNS): 3.26 µM
TGI (SF-295 CNS): 10.8 µM
GI50 (NCI/ADR-RES ovarian): 6.53 µM
TGI (NCI/ADR-RES ovarian): > 100 µM
GI50 (CAKI-1 renal): 3.08 µM
TGI (CAKI-1 renal): 12.3 µM
GI50 (SF-268 CNS): 5.75 µM
TGI (SF-268 CNS): 68.5 µM
GI50 (OVCAR-4 ovarian): 3.26 µM
TGI (OVCAR-4 ovarian): > 100 µM
GI50 (TK-10 renal): 2.41 µM
TGI (TK-10 renal): 6.62 µM
GI50 (COLO 205 colon): > 100 µM
TGI (COLO 205 colon): > 100 µM
GI50 (A498 renal): 4.88 µM
TGI (A498 renal): 21 µM
GI50 (SR leukemia): > 100 µM
TGI (SR leukemia): > 100 µM
GI50 (NCI-H226 lung): 2.43 µM
TGI (NCI-H226 lung): 6.99 µM
GI50 (OVCAR-3 ovarian): 9.59 µM
TGI (OVCAR-3 ovarian): > 100 µM
GI50 (K-562 leukemia): > 100 µM
TGI (K-562 leukemia): > 100 µM
GI50 (MCF7 breast): > 100 µM
TGI (MCF7 breast): > 100 µM
GI50 (ACHN renal): 3.33 µM
TGI (ACHN renal): 11 µM
GI50 (BT-549 breast): 20.3 µM
TGI (BT-549 breast): > 100 µM
GI50 (HCT-15 colon): > 100 µM
TGI (HCT-15 colon): > 100 µM
GI50 (PC-3 prostate): 6.35 µM
TGI (PC-3 prostate): > 100 µM
GI50 (UO-31 renal): 3.45 µM
TGI (UO-31 renal): > 100 µM
GI50 (786-0 renal): 2.47 µM
TGI (786-0 renal): 6.64 µM
GI50 (MDA-MB-435): > 100 µM
TGI (MDA-MB-435): > 100 µM
GI50 (SNB-75 CNS): 1.6 µM
TGI (SNB-75 CNS): 7.67 µM
GI50 (SNB-19 CNS): 3.41 µM
TGI (SNB-19 CNS): 14.1 µM
GI50 (RPMI-8226 leukemia): > 100 µM
TGI (RPMI-8226 leukemia): > 100 µM
GI50 (HT29 colon): > 100 µM
TGI (HT29 colon): > 100 µM
GI50 (MOLT-4 leukemia): > 100 µM
TGI (MOLT-4 leukemia): > 100 µM
GI50 (CCRF-CEM leukemia): > 100 µM
TGI (CCRF-CEM leukemia): > 100 µM
GI50 (SK-OV-3 ovarian): 8.24 µM
TGI (SK-OV-3 ovarian): 27.2 µM
GI50 (UACC-62 melanoma): 12.9 µM
TGI (UACC-62 melanoma): 93.9 µM
GI50 (OVCAR-5 ovarian): > 100 µM
TGI (OVCAR-5 ovarian): > 100 µM
GI50 (OVCAR-8 ovarian): 10.1 µM
TGI (OVCAR-8 ovarian): > 100 µM
GI50 (HL-60(TB) leukemia): > 100 µM
TGI (HL-60(TB) leukemia): > 100 µM
GI50 (MDA-MB-231 breast): 2.3 µM
TGI (MDA-MB-231 breast): 6.44 µM
GI50 (MALME-3M melanoma): 6.71 µM
TGI (MALME-3M melanoma): 44.9 µM
GI50 (NCI-H522 lung): 3.26 µM
TGI (NCI-H522 lung): 32.5 µM
GI50 (U251 CNS): 2.3 µM
TGI (U251 CNS): 7.06 µM
GI50 (A549 NSCLC): 4.19 µM
TGI (A549 NSCLC): > 100 µM
GI50 (T-47D breast): 2.57 µM
TGI (T-47D breast): > 100 µM
GI50 (DU-145 prostate): 11.2 µM
TGI (DU-145 prostate): > 100 µM
GI50 (SF-539 CNS): 3.1 µM
TGI (SF-539 CNS): 10.1 µM
GI50 (HOP-62 NSCLC): 2.55 µM
TGI (HOP-62 NSCLC): 6.99 µM
GI50 (MDA-MB-468 breast): 3.35 µM
TGI (MDA-MB-468 breast): 20 µM
GI50 (RXF 393 renal): 2.57 µM
TGI (RXF 393 renal): 7.35 µM
GI50 (KM12 colon): > 100 µM
TGI (KM12 colon): > 100 µM
GI50 (SK-MEL-2 melanoma): 13.8 µM
TGI (SK-MEL-2 melanoma): 36.9 µM
GI50 (HOP-92 NSCLC): 2.41 µM
TGI (HOP-92 NSCLC): 8.23 µM
GI50 (IGROV1 ovarian): 27.6 µM
TGI (IGROV1 ovarian): > 100 µM
GI50 (M14 melanoma): 28.2 µM
TGI (M14 melanoma): > 100 µM
